The values that follow come from patent US7776885B2, “Benzimidazolone compounds having 5-HT4 receptor agonistic activity” (Pfizer, Inc., priority 2003, dated 2010).

Structures can show the parent of a compound that is named as a salt.

For data set [1], the target named is T1, 5-HT4 receptors in the rat oesophagus (Rattus norvegicus, UniProt Q62758).
T1 construct: The remaining inner tube of smooth muscle was known as the TMM; from tissue; host or cells: rat oesophagus tunica muscularis mucosae (TMM), male SD rats (Charles River)
T1 sequence (Q62758 whole entry): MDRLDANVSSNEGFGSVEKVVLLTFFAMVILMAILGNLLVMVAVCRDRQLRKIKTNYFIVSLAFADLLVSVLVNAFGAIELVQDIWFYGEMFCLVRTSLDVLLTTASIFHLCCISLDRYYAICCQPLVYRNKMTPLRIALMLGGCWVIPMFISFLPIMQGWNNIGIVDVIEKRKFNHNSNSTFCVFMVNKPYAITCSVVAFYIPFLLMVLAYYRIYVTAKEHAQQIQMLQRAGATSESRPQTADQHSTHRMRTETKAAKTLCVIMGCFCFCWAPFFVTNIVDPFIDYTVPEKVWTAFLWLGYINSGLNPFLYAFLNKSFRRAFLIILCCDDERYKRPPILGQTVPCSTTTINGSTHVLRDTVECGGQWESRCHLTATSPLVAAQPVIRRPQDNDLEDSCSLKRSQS
Description: Functional assay in rat oesophagus TMM preparation (relaxation of carbachol-contracted tissue). The settings on record: 1 μM antagonist added to bath. The source says:
More specifically, partial agonist activity can be measured according to the following procedures.
Male SD rats (Charles River) weighing 250-350 g were stunned and then killed by cervical dislocation. The oesophagus was dissected from immediately proximal to the stomach (including piece of stomach to mark distal end) up to the level of the trachea and then placed in fresh Krebs' solution.
The outer skeletal muscle layer was removed in one go by peeling it away from the underlying smooth muscle layer using forceps (stomach to tracheal direction). The remaining inner tube of smooth muscle was known as the TMM. This was trimmed to 2 cm from the original ‘stomach-end’ and the rest discarded.
The TMMs were mounted as whole ‘open’ tubes in longitudinal orientation in 5 ml organ baths filled with warm (32° C.) aerated Krebs. Tissues were placed under an initial tension of 750 mg and allowed to equilibrate for 60 minutes. The tissues were re-tensioned twice at 15 minute intervals during the equilibration period. The pump flow rate was set to 2 ml/min during this time.
Following equilibration, the pump was switched off. The tissues were exposed to 1 μM carbachol and contracted and reached a steady contractile plateau within 15 minutes. Tissues were then subject to 1 μM 5-HT (this was to prime the tissues). The tissues relaxed in response to 5-HT fairly rapidly—within 1 minute. […]

In general, melting point refers to the temperature of the solid-liquid transition.

As for `CC(C)n1c(=O)n(C(=O)NCC2CCN(CC(=O)N3CCOCC3)CC2)c2ccccc21` (as salt: oxalate), the melting point amounted to 194.2 °C.

Regarding `O=C(OCCN1CCCCC1)c1c[nH]c2ccccc12` [SB 203,186, 1H-Indole-3-carboxylic acid, 2-(1-piperidinyl)ethyl ester], the “reversal of 5-HT induced relaxation” value in data set [1] is recorded as “reversed 5-HT induced relaxation”.
